Assay results published in ChEMBL document CHEMBL1150248, “Halogenated derivatives QSAR model using spectral moments to predict haloacetic acids (HAA) mutagenicity” (Bioorg Med Chem, 2008).

System: Salmonella typhimurium
Assay: Mutagenic activity in Salmonella Typhimurium TA100 without metabolic activation
Assay type: toxicity, organism-based
Details: salmonella enterica subsp. enterica serovar typhimurium

With O=C(O)C(Cl)(Cl)Cl [TRICHLOROACETIC ACID] the Activity was “Non-toxic”.

O=C(O)C(Br)(Br)Br [TRIBROMOACETIC ACID] was tested, and the Activity was “Non-toxic”.

O=C(O)C(Cl)(Cl)Br [BROMODICHLOROACETIC ACID] was tested, and the Activity was “Non-toxic”.
